Source: US20100240537A1, “Substituted 6-(alkylbenzylamino)purine derivatives for use as cytokinin receptor antagonists and preparations containing these derivatives” (priority 2007, published 2010)
Where two headings read alike, the source gives them in different places.

What was measured:
CRE1/AHK4 = molecular target: T1, CRE1/AHK4 (Arabidopsis thaliana, UniProt Q9C5U0); test: Activation of cytokinin receptor CRE1/AHK4 in E. coli KMI001 (β-galactosidase reporter); assay type: cell-based; conditions: for EC50 CRE1/AHK4 (activation of cytokinin receptor): E. coli KMI001 pIN-III-AHK4, 17 h incubation, n.i. means without interaction
T1 construct: expressed in transfected cells; host or cells: Escherichia coli KMI001, plasmid pIN-III-AHK4
T1 sequence (Q9C5U0 whole entry): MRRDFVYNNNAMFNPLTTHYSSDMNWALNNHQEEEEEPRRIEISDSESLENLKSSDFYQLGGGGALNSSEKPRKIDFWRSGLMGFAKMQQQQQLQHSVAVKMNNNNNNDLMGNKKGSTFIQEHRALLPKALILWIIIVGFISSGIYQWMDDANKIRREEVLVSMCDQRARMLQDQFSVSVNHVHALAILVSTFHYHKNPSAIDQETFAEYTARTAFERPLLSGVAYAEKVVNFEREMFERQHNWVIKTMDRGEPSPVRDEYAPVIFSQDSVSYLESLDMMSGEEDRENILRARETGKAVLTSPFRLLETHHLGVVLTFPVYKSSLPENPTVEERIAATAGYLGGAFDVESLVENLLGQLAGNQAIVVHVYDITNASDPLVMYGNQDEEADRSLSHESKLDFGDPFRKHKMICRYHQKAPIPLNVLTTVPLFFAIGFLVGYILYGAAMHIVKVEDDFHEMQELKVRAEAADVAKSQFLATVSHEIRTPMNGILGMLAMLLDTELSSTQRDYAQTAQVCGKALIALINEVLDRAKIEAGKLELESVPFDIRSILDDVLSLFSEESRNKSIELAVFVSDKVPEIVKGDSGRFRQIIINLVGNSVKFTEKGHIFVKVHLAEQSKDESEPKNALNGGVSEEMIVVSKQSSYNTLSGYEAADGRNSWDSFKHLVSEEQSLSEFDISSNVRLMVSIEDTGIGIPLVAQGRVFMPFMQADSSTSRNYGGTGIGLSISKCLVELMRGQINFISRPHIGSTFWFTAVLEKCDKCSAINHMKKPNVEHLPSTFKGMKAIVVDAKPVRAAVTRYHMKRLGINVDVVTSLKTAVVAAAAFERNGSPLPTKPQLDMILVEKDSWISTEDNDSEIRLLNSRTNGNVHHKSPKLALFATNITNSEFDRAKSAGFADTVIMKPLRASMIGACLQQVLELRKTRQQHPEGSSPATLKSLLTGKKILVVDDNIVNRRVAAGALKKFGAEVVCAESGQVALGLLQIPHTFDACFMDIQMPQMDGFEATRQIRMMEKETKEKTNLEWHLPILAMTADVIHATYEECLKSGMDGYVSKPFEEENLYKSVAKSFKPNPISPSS
Protocol: (§1) Escherichia coli strains KMI001 harbouring the plasmid pIN-III-AHK4 or pSTV28-AHK3 were grown overnight at 25° C. in M9 media enriched with 0.1% casamino acids to OD600˜1. The preculture was diluted 1:600 in 1 ml M9 medium containing 0.1% casamino acids and 1 μl stock solution of either the tested compound (10^−7 M−5×10^−5 M) or solvent control (DMSO, ethanol, methanol) were added. The cultures were further grown at 25° C. in microtiter plate, 200 μl per well. […] The cultures were centrifuged and 50 μl aliquots of the supernatant were transferred to microtiter plate containing 2 μl 50 mM 4-methyl umbelliferyl galactoside which was subsequently incubated for 1 h at 37° C. The reaction was stopped by adding 100 μl 0.2 M Na2CO3. Fluorescence was measured using a Fluoroscan Ascent (Labsystems, Finland) at the excitation and emission wavelengths of 365 and 460 nm, respectively. The OD600 of remaining culture was determined and β-galactosidase activity was calculated as nmol 4-methylumbelliferone×OD600^−1×h^−1.
(§2) The EC50 value, the compound concentration activating the receptor to 50%, was calculated from the obtained dose response curves. The compound functioning as cytokinin antagonists should not activate cytokinin signalling pathway. The values shown in Table 2 are means of three replicates and the entire test was repeated at least twice.

AHK3 = molecular target: T2, AHK3 (Arabidopsis thaliana, UniProt Q9C5U1); test: Activation of cytokinin receptor AHK3 in E. coli KMI001 (β-galactosidase reporter); assay type: cell-based
T2 construct: expressed in transfected cells; host or cells: Escherichia coli KMI001, plasmid pSTV28-AHK3
T2 sequence (Q9C5U1 1-1036): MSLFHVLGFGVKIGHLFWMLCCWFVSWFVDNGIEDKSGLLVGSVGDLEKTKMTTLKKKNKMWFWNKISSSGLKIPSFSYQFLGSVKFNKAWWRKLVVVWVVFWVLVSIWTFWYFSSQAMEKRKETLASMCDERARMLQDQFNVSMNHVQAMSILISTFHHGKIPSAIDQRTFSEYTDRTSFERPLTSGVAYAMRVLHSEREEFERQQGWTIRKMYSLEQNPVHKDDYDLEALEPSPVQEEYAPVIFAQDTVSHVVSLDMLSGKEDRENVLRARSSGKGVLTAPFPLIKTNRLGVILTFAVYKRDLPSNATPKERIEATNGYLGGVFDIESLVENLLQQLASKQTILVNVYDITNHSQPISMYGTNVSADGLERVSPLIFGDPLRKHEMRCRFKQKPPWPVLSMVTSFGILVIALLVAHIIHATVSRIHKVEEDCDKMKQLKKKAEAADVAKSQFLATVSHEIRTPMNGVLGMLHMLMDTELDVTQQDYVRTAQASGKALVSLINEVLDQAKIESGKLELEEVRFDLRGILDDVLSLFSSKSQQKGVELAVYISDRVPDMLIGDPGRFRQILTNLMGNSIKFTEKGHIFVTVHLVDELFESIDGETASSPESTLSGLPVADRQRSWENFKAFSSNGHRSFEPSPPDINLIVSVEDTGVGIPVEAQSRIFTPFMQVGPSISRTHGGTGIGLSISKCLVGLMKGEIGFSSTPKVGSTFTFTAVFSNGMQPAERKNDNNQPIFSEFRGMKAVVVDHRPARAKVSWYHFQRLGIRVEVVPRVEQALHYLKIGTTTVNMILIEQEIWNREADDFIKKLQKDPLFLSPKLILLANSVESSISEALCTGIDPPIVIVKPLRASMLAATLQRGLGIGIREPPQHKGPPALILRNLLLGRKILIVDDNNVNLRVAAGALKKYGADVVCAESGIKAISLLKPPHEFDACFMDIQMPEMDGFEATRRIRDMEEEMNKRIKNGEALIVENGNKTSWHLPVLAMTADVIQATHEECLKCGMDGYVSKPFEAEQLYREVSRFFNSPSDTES
Protocol: as §1, §2

[1] = test system: erytroid leukemia cell line K-562; test: Calcein AM cytotoxicity assay, K-562; assay type: cell-based, human; conditions: Homo sapiens, K562, 72 hours
Text: (§3) Absence of toxic effects against mammalian (especially human) cell lines in a wide concentration range is one of the requirements on compounds intended for use in agriculture. Because toxic compounds negatively influence metabolic processes in cells, many standard cytotoxicity assays are based on measurement of metabolisation rate of various artificial substrates. Resulting product is then quantified e.g. by means of spectrometry. The assays can be easily modified for use in 96-well plates. For evaluation of cytotoxic effect of the novel substituted 6-(alkylbenzylamino)purine derivatives of this invention, a microtiter assay based on quantification of metabolisation of Calcein AM was used. The assay is widely used in drug screening programs and in chemosensitivity testing. In live cells, Calcein AM is enzymatically hydrolysed and accumulation of resulting calcein is manifested by green fluorescence.
(§4) The cells were maintained in Nunc/Corning 80 cm^2 plastic tissue culture flasks and cultured in cell culture medium (DMEM with 5 g/l glucose, 2 mM glutamine, 100 U/ml penicillin, 100 μg/ml streptomycin, 10% fetal calf serum and sodium bicarbonate).
(§5) The cell suspensions were prepared and diluted according to the particular cell type and the expected target cell density (10^4 cells per well based on cell growth characteristics) and pippetted (80 μl) into 96-well plates. Inoculates were allowed a pre-incubation period of 24 hours at 37° C., 100% humidity and 5% CO2 for stabilisation. Tested compounds were added in total volume of 20 μl of water at time zero. Usually, test compound was evaluated at six 3-fold dilutions. In routine testing, the highest concentration tested was 100 μM, the eventual changes depended on physico-chemical characteristics of the respective compound. All drug concentrations were tested in triplicates. Incubations of cells with the test compounds lasted for 72 hours at 37° C., in 5% CO2 atmosphere and 100% humidity. At the end of incubation period Calcein AM (Molecular Probes) in PBS was added into final concentration of 1 μg/ml. After another 1 hour of incubation fluorescence (FD) was measured with the Labsystem FIA Reader Fluoroscan Ascent (UK). Growth inhibition (GI) was estimated using the following equitation: GI=(mean FDdrug exposed wells−mean FDblank)/(mean FDcontrol wells−mean FDblank)×100%.

[2] = test system: breast carcinoma cell line MCF-7; test: Calcein AM cytotoxicity assay, MCF-7; assay type: cell-based, human; conditions: Homo sapiens, MCF7, 72 hours
Text: as §3, §4, §5

melanoma cell line G-361 = test: Calcein AM cytotoxicity assay, G-361; assay type: cell-based, human; conditions: Homo sapiens, G-361, 72 hours
Text: as §3, §4, §5

[3] = E. coli KMI001 pSTV28-AHK3, 28 h incubation, n.i. means without interaction, read-out: EC50 AHK3 (activation of cytokinin receptor)

| SMILES | EC50 (CRE1/AHK4) [µM] | EC50 (AHK3) [µM] | GI50 [1] [µM] | GI50 [2] [µM] | GI50 (melanoma cell line G-361) [µM] | EC50 CRE1/AHK4 (activation of cytokinin receptor) (CRE1/AHK4) | EC50 (AHK3; [3]) [µM] |
| --- | --- | --- | --- | --- | --- | --- | --- |
| c1ccc(CNc2ncnc3nc[nH]c23)cc1 [6-(benzylamino)purine] | 19.7 | 18.2 | > 100 | > 100 | > 100 | – | – |
| Cc1cccc(CNc2ncnc3nc[nH]c23)c1O [Compound 8, 6-(2-hydroxy-3-methylbenzylamino)purine] | – | – | > 50 | > 50 | > 50 | n.i. | > 100 |
| Cc1ccc(O)c(CNc2ncnc3nc[nH]c23)c1 [Compound 10, 6-(2-hydroxy-5-methylbenzylamino)purine] | – | – | > 100 | > 100 | > 100 | n.i. | > 100 |
